In PMC11773759, “Bioactivity-guided isolation and molecular modeling of the anti-inflammatory constituents from the leaves of Duranta erecta Linn” (BMC Complementary Medicine and Therapies, 2025):

Legend:
5-LOX enzyme = test: 5-Lipoxygenase (5-LOX) inhibitory assay (colorimetric LOX inhibitor screening kit); format: biochemical; details: isolated compounds
Procedure: The LOX inhibitor screening assay was carried out colorimetrically, as per the manufacturer’s instructions (Cayman Chemical Company, MI, USA). […] To initiate the enzymatic reaction, introduce 10 µL of 1 mM arachidonic acid and shake the plate for 5 min.
To halt the enzymatic process and promote colour formation, 100 µL of chromogen from the test kit was used. The plate was then shaken for a further 5 min before the absorbance at 490 nm was measured with a microplate reader.

ovine COX-1 = target: T1, ovine COX-1 (Ovis aries, UniProt P05979); test: COX-1 inhibition assay (colorimetric COX (ovine) inhibitor screening kit)
T1 sequence (P05979 25-600): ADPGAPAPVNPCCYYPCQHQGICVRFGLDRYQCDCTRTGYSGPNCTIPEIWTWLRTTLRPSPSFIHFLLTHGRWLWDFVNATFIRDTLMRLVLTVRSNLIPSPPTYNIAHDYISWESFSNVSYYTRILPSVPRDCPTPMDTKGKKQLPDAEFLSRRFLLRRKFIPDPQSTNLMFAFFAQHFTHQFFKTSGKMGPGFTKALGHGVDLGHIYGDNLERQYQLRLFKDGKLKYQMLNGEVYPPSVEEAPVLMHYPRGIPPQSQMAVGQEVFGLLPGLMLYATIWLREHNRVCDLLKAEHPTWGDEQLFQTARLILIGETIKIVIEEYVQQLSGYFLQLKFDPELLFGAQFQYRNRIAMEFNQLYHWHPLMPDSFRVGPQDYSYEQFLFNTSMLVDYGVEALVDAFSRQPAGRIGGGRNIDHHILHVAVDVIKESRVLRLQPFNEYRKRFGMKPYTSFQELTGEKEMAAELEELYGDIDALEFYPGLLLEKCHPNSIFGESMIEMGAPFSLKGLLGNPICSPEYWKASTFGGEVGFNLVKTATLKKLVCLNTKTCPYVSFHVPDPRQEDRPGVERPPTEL
Procedure: COX-1 and 2 inhibition assay kits (K548-100 and K547-100) were purchased from Biovision Inc., California, USA. […] The absorbances were measured using a Tecan microplate reader (Infinite F50, Switzerland). […] Sigma Chemical Company (CA, USA) supplied the reagents utilized in biological experiments.
To prepare a stock concentration of 5 mg/mL, the extract and its constituent fractions were dissolved in 100% DMSO. In triplicate, samples were serially diluted from 0.1 µg/mL to 100 µg/mL. The inhibitory activity of COX was determined using a colorimetric approach, as previously described [13], and using the Cayman colorimetric COX (ovine) inhibitor screening test kit (Cayman Chemical Company, MI, USA) according to the manufacturer’s instructions. […] After initiating the reaction with 10 µL of 10 mM arachidonic acid, the mixture was incubated at 37 °C for another 2 min. To stop the reaction, 50 µL of 1 N HCl and saturated stannous chloride were added. The assays were run using 100 U of ovine COX-1 and COX-2. […] Results were presented as IC50 (µg/mL) [13].

soybean 5-LOX = system: soybean 5-LOX; design: method as in doi:10.1007/s00044-016-1677-9; details: in vitro; cited from earlier work
lipoxygenase = system: lipoxygenase; design: method as in PMID 26134247; details: dose of 0.5 mM; cited from earlier work
[1] = system: carrageenan-induced rat paw edema; design: method as in PMID 12241987; details: cited from earlier work

Row | SMILES | IC50 (5-LOX enzyme) [µM] | IC50 (ovine COX-1) [µM] | suppression of soybean 5-LOX (soybean 5-LOX) | inhibition of lipoxygenase (lipoxygenase) | anti-inflammatory effect in carrageenan-induced rat paw edema [1]
1 | COC(=O)C1=COC(OC2OC(CO)C(O)C(O)C2O)C2C1(O)CC(OC(=O)C=Cc1ccc(OC)c(O)c1)C2(C)O (stereo not shown) [Compound 1, duranterectoside A] | 2.6 ± 0.1 | 7.3 ± 0.9 |  |  | 
2 | COC(=O)C1=COC(OC2OC(CO)C(O)C(O)C2O)C2C1(O)CC(O)C2(C)O (stereo not shown) [Compound 2, lamiide] | 4.9 ± 0.4 | 8.5 ± 0.2 | suppresses | moderate inhibition | anti-inflammatory properties
